Source: patent US11814416B2, “Polypeptide capable of passing through blood-brain barrier” (SHENZHEN RUIJIAN […] COMPANY, priority 2018, dated 2023)

How the values were obtained:
mice [1] = details: mouse, in vivo
mice [2] = details: mouse, in vivo, iv
mice [3] = details: mouse, in vivo; remark: listed apart in the source

Compound	tremor symptoms and tremor time (side effects) 30 minutes after administration (mice [1])	antinociceptive effect 1 hour after injection (mice [2])	duration of the maximal effect (mice [2])	onset of antinociceptive effect after nasal administration (mice [3])	tremor symptoms and tremor time (side effects) 120 minutes after administration, compared with MVIIA (mice [1])	time of maximal (strongest) antinociceptive effect after administration (mice [2]) [h]	difference from the saline group at 8 hours (mice [3])	time after which the effect disappears (mice [3]) [h]
CSCC[C@@H]1NC(=O)[C@H](CC(C)C)NC(=O)[C@H](CCCNC(=N)N)NC(=O)[C@H](CO)NC(=O)[C@@H]2CSSC[C@@H]3NC(=O)[C@H](CO)NC(=O)CNC(=O)[C@H]([C@@H](C)O)NC(=O)[C@H](CSSC[C@H](N)C(=O)N[C@@H](CCCCN)C(=O)NCC(=O)N[C@@H](CCCCN)C(=O)NCC(=O)N[C@@H](C)C(=O)N[C@@H](CCCCN)C(=O)N2)NC(=O)[C@H](CSSC[C@@H](C(N)=O)NC(=O)[C@H](CCCCN)NC(=O)CNC(=O)[C@H](CO)NC(=O)[C@H](CCCNC(=N)N)NC3=O)NC(=O)[C@H](CC(=O)O)NC(=O)[C@H](Cc2ccc(O)cc2)NC1=O [MVIIA, reference compound]	more obvious tremor symptoms and longer tremor time							
CKGKGAKCSRLMYDCCTGSCRSGKCGGGYGRKKRRQRRR [MVIIA-d]	lower than that of MVIIA	showed antinociceptive effects	about 4 hours	immediate effect	no significant differences			
CKGKGAKCSRLMYDCCTGSCRSGKCGGYGRKKRRQRRR [MVIIA-c]	lower than that of MVIIA		about 4 hours	immediate effect	no significant differences	3	still significantly different	10
CKGKGAKCSRLMYDCCTGSCRSGKCGYGRKKRRQRRR [MVIIA-b]	lower than that of MVIIA	showed antinociceptive effects	about 4 hours	immediate effect	no significant differences		still significantly different	10
CKGKGAKCSRLMYDCCTGSCRSGKCYGRKKRRQRRR [MVIIA-a]	lower than that of MVIIA	showed antinociceptive effects	about 4 hours	immediate effect	no significant differences			
